Data published in ChEMBL document CHEMBL1201862, “PubChem BioAssay data set” (2004).
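Following 48 hours of exposure in 96-well plates, responses at five concentrations were used to interpolate endpoints linearly. GI50 = concentration required for 50% inhibition of growth.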 Calls of active or inactive are those of the source. Rule as the data show it: active = GI50 up to about 1.1 µM and inactive = higher.

Experiments:
Test in all cases: growth of human tumour cells (NCI), 48 h
UO-31 = system: UO-31
A549 = system: A549
OVCAR-4 = system: OVCAR-4
UACC-257 = system: UACC-257
SK-MEL-2 = system: SK-MEL-2
NCI/ADR-RES = system: NCI/ADR-RES
NCI-H23 = system: NCI-H23
IGROV-1 = system: IGROV-1
HCC 2998 = system: HCC 2998
CCRF-CEM = system: CCRF-CEM
KM12 = system: KM12
SF-295 = system: SF-295
Malme-3M = system: Malme-3M
HCT-116 = system: HCT-116
SK-OV-3 = system: SK-OV-3
TK-10 = system: TK-10
SNB-75 = system: SNB-75
HOP-92 = system: HOP-92
NCI-H226 = system: NCI-H226
A498 = system: A498

SMILES | GI50 (UO-31) | GI50 (A549) | GI50 (OVCAR-4) | GI50 (UACC-257) | GI50 (SK-MEL-2) | GI50 (NCI/ADR-RES) | GI50 (NCI-H23) | GI50 (IGROV-1) | GI50 (HCC 2998) | GI50 (CCRF-CEM) | GI50 (KM12) | GI50 (SF-295) | GI50 (Malme-3M) | GI50 (HCT-116) | GI50 (SK-OV-3) | GI50 (TK-10) | GI50 (SNB-75) | GI50 (HOP-92) | GI50 (NCI-H226) | GI50 (A498)
CC[C@H]1CN2CCc3cc(OC)c(OC)cc3[C@@H]2C[C@@H]1C[C@H]1NCCc2cc(O)c(OC)cc21 | 0.146 µM (active) | 0.025 µM (active) | 0.025 µM (active) | 0.0731 µM (active) | 0.0319 µM (active) | 0.543 µM (active) | 0.0261 µM (active) | 0.0385 µM (active) | 0.0261 µM (active) | 0.025 µM (active) | 0.0296 µM (active) | 0.0326 µM (active) | 0.0809 µM (active) | 0.025 µM (active) | 0.0562 µM (active) | – | – | – | – | –
Cc1ccc(C(=O)Cc2nc3c([nH]c2=O)c(C)nn3-c2ccccc2)c(C)c1 | – | 6.85 µM (inactive) | 2.29 µM (inactive) | > 10 µM (inactive) | – | 6.53 µM (inactive) | > 10 µM (inactive) | > 10 µM (inactive) | > 10 µM (inactive) | 5.69 µM (inactive) | > 10 µM (inactive) | > 10 µM (inactive) | > 10 µM (inactive) | 4.69 µM (inactive) | > 10 µM (inactive) | > 10 µM (inactive) | 1.01 µM (active) | 6.04 µM (inactive) | – | –
CC(=C(c1ccccc1)c1ccccc1)N1C(=O)CC(=O)N1C | 17.1 µM (inactive) | 35 µM (inactive) | 32.1 µM (inactive) | > 100 µM (inactive) | 16.7 µM (inactive) | > 100 µM (inactive) | > 100 µM (inactive) | 18.3 µM (inactive) | 47 µM (inactive) | 40 µM (inactive) | 50.4 µM (inactive) | 52.7 µM (inactive) | – | 74.6 µM (inactive) | > 100 µM (inactive) | 43.3 µM (inactive) | 67.6 µM (inactive) | 45.5 µM (inactive) | > 100 µM (inactive) | –
Cc1ccc2c3c1[C@@H]1O[C@@H]1c1cccc(c1-3)[C@@H]1O[C@H]21 | 12 µM (inactive) | 15.9 µM (inactive) | 17.5 µM (inactive) | 15.9 µM (inactive) | 16.1 µM (inactive) | 18.2 µM (inactive) | 15.1 µM (inactive) | – | – | – | 12.4 µM (inactive) | 15.8 µM (inactive) | 15.3 µM (inactive) | 5.24 µM (inactive) | 26.7 µM (inactive) | 18.2 µM (inactive) | 2.38 µM (inactive) | 18.1 µM (inactive) | 28.2 µM (inactive) | 19.1 µM (inactive)
CCOC(=O)C1=NN(c2ccc(Cl)cc2)C2=CC(C)=NN(C)C(=S)N21 | > 100 µM (inactive) | 95.7 µM (inactive) | 37.6 µM (inactive) | > 100 µM (inactive) | > 10 µM (inactive) | 65 µM (inactive) | 42.1 µM (inactive) | 44.8 µM (inactive) | > 100 µM (inactive) | > 100 µM (inactive) | > 100 µM (inactive) | 42.2 µM (inactive) | – | 36.6 µM (inactive) | 29.9 µM (inactive) | 22 µM (inactive) | 26.8 µM (inactive) | 30.8 µM (inactive) | – | –
CN(C1=NCCO1)c1cccc2ccccc12 | > 10 µM (inactive) | > 10 µM (inactive) | > 10 µM (inactive) | – | > 10 µM (inactive) | > 10 µM (inactive) | > 10 µM (inactive) | > 10 µM (inactive) | > 10 µM (inactive) | > 10 µM (inactive) | > 10 µM (inactive) | > 10 µM (inactive) | > 10 µM (inactive) | > 10 µM (inactive) | > 10 µM (inactive) | > 10 µM (inactive) | 9.29 µM (inactive) | – | > 10 µM (inactive) | > 10 µM (inactive)
O=C(O)c1ccc(C(=O)O)c2c(C(=O)O)ccc(C(=O)O)c12 | > 100 µM (inactive) | > 100 µM (inactive) | > 100 µM (inactive) | > 100 µM (inactive) | > 100 µM (inactive) | > 100 µM (inactive) | > 100 µM (inactive) | > 100 µM (inactive) | – | – | > 100 µM (inactive) | > 100 µM (inactive) | > 100 µM (inactive) | > 100 µM (inactive) | > 100 µM (inactive) | > 100 µM (inactive) | > 100 µM (inactive) | > 100 µM (inactive) | > 100 µM (inactive) | > 100 µM (inactive)
c1ccc(OCc2nnc(CCCCCCCCc3nnc(COc4ccccc4)o3)o2)cc1 | > 100 µM (inactive) | > 100 µM (inactive) | > 100 µM (inactive) | > 100 µM (inactive) | > 100 µM (inactive) | > 100 µM (inactive) | 65.9 µM (inactive) | > 100 µM (inactive) | 28.6 µM (inactive) | > 100 µM (inactive) | > 100 µM (inactive) | > 100 µM (inactive) | – | 63.8 µM (inactive) | 32.8 µM (inactive) | > 100 µM (inactive) | 28.1 µM (inactive) | 55.6 µM (inactive) | > 100 µM (inactive) | > 100 µM (inactive)
